In patent publication US20240158392A1 (Janssen Biotech, Inc., priority 2021, published 2024):

Each molecule was assayed against SIK2 (Homo sapiens, UniProt Q9H0K1) (assay: SIK2 Enzymatic Assay High Version 2 (High ATP)). Details: not given.
Sequence of SIK2 (Q9H0K1 whole entry, species assumed): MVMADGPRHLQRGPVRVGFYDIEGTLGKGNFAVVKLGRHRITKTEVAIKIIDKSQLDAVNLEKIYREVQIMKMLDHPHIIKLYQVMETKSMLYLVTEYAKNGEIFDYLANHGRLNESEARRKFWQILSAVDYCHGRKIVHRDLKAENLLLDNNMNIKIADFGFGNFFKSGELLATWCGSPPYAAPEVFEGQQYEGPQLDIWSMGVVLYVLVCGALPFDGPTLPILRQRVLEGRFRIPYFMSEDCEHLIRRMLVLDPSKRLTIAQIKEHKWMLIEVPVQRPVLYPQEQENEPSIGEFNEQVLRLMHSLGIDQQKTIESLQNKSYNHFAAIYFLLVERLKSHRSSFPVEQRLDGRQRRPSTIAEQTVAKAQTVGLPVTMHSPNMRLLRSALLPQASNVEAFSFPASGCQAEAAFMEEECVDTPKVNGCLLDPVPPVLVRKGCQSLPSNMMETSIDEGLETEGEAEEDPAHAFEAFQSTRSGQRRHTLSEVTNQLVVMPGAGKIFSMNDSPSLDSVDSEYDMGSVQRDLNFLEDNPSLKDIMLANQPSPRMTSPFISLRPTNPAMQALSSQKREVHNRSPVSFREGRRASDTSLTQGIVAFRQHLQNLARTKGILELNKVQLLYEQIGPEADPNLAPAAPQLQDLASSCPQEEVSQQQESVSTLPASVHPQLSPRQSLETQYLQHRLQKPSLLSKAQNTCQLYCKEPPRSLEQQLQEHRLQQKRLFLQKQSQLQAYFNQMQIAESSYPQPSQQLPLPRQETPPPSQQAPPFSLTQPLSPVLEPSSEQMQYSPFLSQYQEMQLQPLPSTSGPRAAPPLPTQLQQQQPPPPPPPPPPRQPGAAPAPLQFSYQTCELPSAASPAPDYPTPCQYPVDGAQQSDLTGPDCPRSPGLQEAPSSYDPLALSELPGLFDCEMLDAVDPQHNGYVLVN
Format: biochemical
Summary of the method: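 At room temperature, enzyme (6 nM, 2× final) was preincubated with compound for 30 min, then 6 mM ATP and 400 μM HDAC5tide (both 2× final) were added for 2 h. ADP formed was measured by ADP-Glo Max (2 h reagent, 1 h detection) using luminescence.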
Molecule `Cc1cc(-c2ccn3nc(NC(=O)C4CC4)cc3c2)c(OC[C@H]2CCN2CC(F)(F)F)cn1` [Example 452, N-[5-[2-methyl-5-[[(2R)-1-(2,2,2-trifluoroethyl)azetidin-2-yl]methoxy]-4-pyridyl]pyrazolo[1,5-a]pyridin-2-yl]cyclopropanecarboxamide] has an IC50 of 0.015 µM.
Work on `Cc1cc(-c2ccn3nc(Nc4nn(C)cc4F)cc3c2)c(O[C@H]2C[C@H]3COC[C@@H](C2)N3)cn1` [Example 399, N-(4-fluoro-1-methyl-pyrazol-3-yl)-5-[2-methyl-5-[[(1S,5R,7s)-3-oxa-9-azabicyclo[3.3.1]nonan-7-yl]oxy]-4-pyridyl]pyrazolo[1,5-a]pyridin-2-amine] yielded an IC50 of 0.0442 µM.
With `Cc1cc(-c2cn3cc(Nc4cnn(C)c4)nc3cn2)c(O[C@H]2C[C@H]3COC[C@@H](C2)N3)cn1` [Example 322, 6-[2-methyl-5-[[(1S,5R)-3-oxa-9-azabicyclo[3.3.1]nonan-7-yl]oxy]-4-pyridyl]-N-(1-methylpyrazol-4-yl)imidazo[1,2-a]pyrazin-2-amine] the IC50 was 0.0015 µM.
`Cc1cc(-c2ccn3nc(Nc4nccc(C)c4F)cc3c2)c(O[C@H]2C[C@H]3COC[C@@H](C2)N3)cn1` [Example 338, N-(3-fluoro-4-methyl-2-pyridyl)-5-[2-methyl-5-[[(1S,5R)-3-oxa-9-azabicyclo[3.3.1]nonan-7-yl]oxy]-4-pyridyl]pyrazolo[1,5-a]pyridin-2-amine] showed an IC50 of 0.00325 µM.
`Cc1cc(-c2ccn3nc(Nc4cnc(C(F)(F)F)cn4)cc3c2)c(O[C@H]2C[C@H]3COC[C@@H](C2)N3)cn1` [Example 375, 5-(5-(((1R,5S,7s)-3-oxa-9-azabicyclo[3.3.1]nonan-7-yl)oxy)-2-methylpyridin-4-yl)-N-(5-(trifluoromethyl)pyrazin-2-yl)pyrazolo[1,5-a]pyridin-2-amine] showed an IC50 of 0.00115 µM.
`CNC(=O)c1ccc(Nc2cc3cc(-c4cc(C)ncc4O[C@H]4C[C@H]5COC[C@@H](C4)N5C(C)=O)ccn3n2)nc1` [Example 356, 6-[[5-[5-[[(1S,5R)-9-acetyl-3-oxa-9-azabicyclo[3.3.1]nonan-7-yl]oxy]-2-methyl-4-pyridyl]pyrazolo[1,5-a]pyridin-2-yl]amino]-N-methyl-pyridine-3-carboxamide] was tested, and the IC50 was under 0.000847 µM.

Same assay, conditions: enzyme 6 nM, 6 mM ATP and 400 μM HDAC5tide (each 2× final concentration); 30 minutes pre-incubation, 2 hours; ADP-Glo Max luminescence; read-out: SIK2 high ATP IC50 (μM) (Test Example 2)
In the case of `Cc1cc(-c2ccn3nc(NC(=O)C4CC4)cc3c2)c(OC[C@@](C)(O)C(F)(F)F)cn1` (single isomer, unassigned) [Example 189, (*R)—N-(5-(2-methyl-5-(3,3,3-trifluoro-2-hydroxy-2-methylpropoxy)pyridin-4-yl)pyrazolo[1,5-a]pyridin-2-yl)cyclopropanecarboxamide], the IC50 is reported as 0.0367 µM.
In the case of `CC(C)(C#N)COc1cnc(OC(F)F)cc1-c1ccn2nc(Nc3cnc(C(C)(C)O)cn3)cc2c1` [Example 713, 3-[[6-(difluoromethoxy)-4-[2-[[5-(1-hydroxy-1-methyl-ethyl)pyrazin-2-yl]amino]pyrazolo[1,5-a]pyridin-5-yl]-3-pyridyl]oxy]-2,2-dimethyl-propanenitrile], the IC50 is reported as 0.00746 µM.
`Cc1cc(-c2ccn3nc(Nc4cc(C)nc(C)n4)cc3c2)c(OC[C@H]2OCC[C@@H]2O)cn1` [Example 218, (2R,3S)-2-[[4-[2-[(2,6-dimethylpyrimidin-4-yl)amino]pyrazolo[1,5-a]pyridin-5-yl]-6-methyl-3-pyridyl]oxymethyl]tetrahydrofuran-3-ol] gave an IC50 of 0.00407 µM.
Molecule `Cc1cc(-c2ccn3nc(Nc4ccc(C(=O)NC5CC5)cn4)cc3c2)c(OCC(C)(C)O)cn1` [Example 639, N-cyclopropyl-6-[[5-[5-(2-hydroxy-2-methyl-propoxy)-2-methyl-4-pyridyl]pyrazolo[1,5-a]pyridin-2-yl]amino]pyridine-3-carboxamide] has an IC50 of 0.0887 µM.
Work on `Cc1cc(Nc2cc3cc(-c4cc(OC(F)F)ncc4OCC(C)(C)O)ccn3n2)nc(C)n1` [Example 679, 1-[[6-(difluoromethoxy)-4-[2-[(2,6-dimethylpyrimidin-4-yl)amino]pyrazolo[1,5-a]pyridin-5-yl]-3-pyridyl]oxy]-2-methyl-propan-2-ol] yielded an IC50 of 0.00319 µM.
With `N#Cc1ccc(OC[C@H]2CNCCO2)c(-c2ccn3nc(Nc4ccccn4)cc3c2)c1` [Example 478, 4-[[(2R)-morpholin-2-yl]methoxy]-3-[2-(2-pyridylamino)pyrazolo[1,5-a]pyridin-5-yl]benzonitrile] the IC50 was under 0.000847 µM.
Work on `Cc1cc(-c2ccn3nc(Nc4cc(C)nc(C)n4)cc3c2)c(OCC(C)(C)NS(C)(=O)=O)cn1` [Example 361, N-[2-[[4-[2-[(2,6-dimethylpyrimidin-4-yl)amino]pyrazolo[1,5-a]pyridin-5-yl]-6-methyl-3-pyridyl]oxy]-1,1-dimethyl-ethyl]methanesulfonamide] yielded an IC50 of 0.00703 µM.
With `Cc1cc(-c2ccn3nc(NC(=O)C4CC4)cc3c2)c(O[C@H]2CCC[C@H](O)C2)cn1` (single isomer, unassigned) [Example 195, trans-N-(5-(5-(((1*S,3*S)-3-hydroxycyclohexyl)oxy)-2-methylpyridin-4-yl)pyrazolo[1,5-a]pyridin-2-yl)cyclopropanecarboxamide] the IC50 was 0.0116 µM.
`CC(C)(C#N)COc1cnc(OC(F)F)cc1-c1ccn2nc(Nc3ccc(C(C)(C)O)nn3)cc2c1` [Example 712, 3-[[6-(difluoromethoxy)-4-[2-[[6-(1-hydroxy-1-methyl-ethyl)pyridazin-3-yl]amino]pyrazolo[1,5-a]pyridin-5-yl]-3-pyridyl]oxy]-2,2-dimethyl-propanenitrile] showed an IC50 of 0.00411 µM.
Molecule `CC(=O)NC(C)(C)COc1cnc(C)cc1-c1ccn2nc(Nc3cc(C)nc(C)n3)cc2c1` [Example 360, N-[2-[[4-[2-[(2,6-dimethylpyrimidin-4-yl)amino]pyrazolo[1,5-a]pyridin-5-yl]-6-methyl-3-pyridyl]oxy]-1,1-dimethyl-ethyl]acetamide] has an IC50 of 0.0058 µM.
With `Cc1cc(-c2ccn3nc(Nc4cnccn4)cc3c2)c(OC[C@@H]2CN(C)CCO2)cn1` [Example 515, 5-[2-methyl-5-[[(2S)-4-methylmorpholin-2-yl]methoxy]-4-pyridyl]-N-pyrazin-2-yl-pyrazolo[1,5-a]pyridin-2-amine] the IC50 was 0.000864 µM.
`Cc1cc(-c2ccn3nc(NC(=O)C4CC4)cc3c2)c(OC[C@]23CN[C@H](CO2)C3)cn1` [Example 253, N-[5-[2-methyl-5-[[(1S,4S)-5-oxa-2-azabicyclo[2.2.1]heptan-4-yl]methoxy]-4-pyridyl]pyrazolo[1,5-a]pyridin-2-yl]cyclopropanecarboxamide] was tested, and the IC50 was 0.00479 µM.
`Cc1cc(-c2ccn3nc(Nc4cc(C)nc(C)n4)cc3c2)c(O[C@H]2CC[C@H](C#N)CC2)cn1` [Example 581, (1r,4r)-4-((4-(2-((2,6-dimethylpyrimidin-4-yl)amino)pyrazolo[1,5-a]pyridin-5-yl)-6-methylpyridin-3-yl)oxy)cyclohexane-1-carbonitrile] gave an IC50 of 0.0838 µM.
Work on `CNc1nc(C)cc(Nc2cc3cc(-c4cc(C)ncc4OCC(C)(C)O)ccn3n2)n1` [Example 228, 2-methyl-1-[[6-methyl-4-[2-[[6-methyl-2-(methylamino)pyrimidin-4-yl]amino]pyrazolo[1,5-a]pyridin-5-yl]-3-pyridyl]oxy]propan-2-ol] yielded an IC50 of 0.00167 µM.
`Cc1cc(-c2ccn3nc(Nc4ccc(C(=O)NC(C)C)c(C)c4)cc3c2)c(OCC(C)(C)O)cn1` [Example 345, 4-[[5-[5-(2-hydroxy-2-methyl-propoxy)-2-methyl-4-pyridyl]pyrazolo[1,5-a]pyridin-2-yl]amino]-N-isopropyl-2-methyl-benzamide] gave an IC50 of 0.0306 µM.
`Cc1cc(-c2ccn3nc(Nc4cc(C)nc(C)n4)cc3c2)c(OC[C@](C)(N)C(F)(F)F)cn1` (racemic) [Example 267, (rac-)-5-[5-(2-amino-3,3,3-trifluoro-2-methyl-propoxy)-2-methyl-4-pyridyl]-N-(2,6-dimethylpyrimidin-4-yl)pyrazolo[1,5-a]pyridin-2-amine] gave an IC50 of 0.00331 µM.
Molecule `Cc1cc(-c2ccn3nc(Nc4cc(C)nc(C)n4)cc3c2)c(OCC2CC(=O)N(C)C2)cn1` (single isomer, unassigned) [Example 547, (*R)-4-[[4-[2-[(2,6-dimethylpyrimidin-4-yl)amino]pyrazolo[1,5-a]pyridin-5-yl]-6-methyl-3-pyridyl]oxymethyl]-1-methyl-pyrrolidin-2-one] has an IC50 of 0.014 µM.
In the case of `Cc1cc(-c2ccn3nc(Nc4cc(C)nc(N5CCOCC5)n4)cc3c2)c(O[C@H]2CC[C@H](O)CC2)cn1` [Example 288, 4-[[6-methyl-4-[2-[(6-methyl-2-morpholino-pyrimidin-4-yl)amino]pyrazolo[1,5-a]pyridin-5-yl]-3-pyridyl]oxy]cyclohexanol], the IC50 is reported as 0.00696 µM.
Work on `Cc1cc(-c2ccn3nc(Nc4cc(C)nc(C)n4)cc3c2)c(OC[C@@H]2COC[C@H](O)C2)cn1` (single isomer, unassigned) [Example 351, (3*R, 5*S)-5-[[4-[2-[(2,6-dimethylpyrimidin-4-yl)amino]pyrazolo[1,5-a]pyridin-5-yl]-6-methyl-3-pyridyl]oxymethyl]tetrahydropyran-3-ol] yielded an IC50 of 0.00278 µM.
`Cc1cc(Nc2cc3cc(-c4cc(C(F)(F)F)ncc4OC[C@@]45CN[C@@H](CO4)C5)ccn3n2)nc(C)n1` [Example 252, N-(2,6-dimethylpyrimidin-4-yl)-5-[5-[[(1R,4R)-5-oxa-2-azabicyclo[2.2.1]heptan-4-yl]methoxy]-2-(trifluoromethyl)-4-pyridyl]pyrazolo[1,5-a]pyridin-2-amine] showed an IC50 of 0.0284 µM.
`Cc1cc(-c2ccn3nc(Nc4cc(C)nc(C)n4)cc3c2)c(OC[C@@]2(C)CCOC2)cn1` (single isomer, unassigned) [Example 536, (*S)—N-(2,6-dimethylpyrimidin-4-yl)-5-[2-methyl-5-[(3-methyltetrahydrofuran-3-yl)methoxy]-4-pyridyl]pyrazolo[1,5-a]pyridin-2-amine] showed an IC50 of 0.0535 µM.
For `Cc1cc(-c2ccn3nc(Nc4cccnn4)cc3c2)c(O[C@H]2C[C@H](N)C2)cn1` [Example 520, 5-[5-(3-aminocyclobutoxy)-2-methyl-4-pyridyl]-N-pyridazin-3-yl-pyrazolo[1,5-a]pyridin-2-amine], the IC50 was 0.0445 µM.
